Test results as given in patent publication US12371428B2 (Exelixis, Inc., priority 2019, dated 2025).

Experiments:
[1] = molecular target: AXL (phospho-AXL, Gas6-stimulated A-172 glioblastoma cells) (Homo sapiens (Human), UniProt P30530); experiment: AXL autophosphorylation ELISA in A-172 cells (Example E); format: cell-based; conditions: cellular activity; AXL autophosphorylation ELISA in A-172 cells; read-out: Axl IC50
Outline: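 Phospho-AXL was measured by ELISA in lysates of Gas6-stimulated A-172 cells, starved 24 h in serum-free medium and exposed 1 h to an 8-point compound dilution at 0.3% DMSO.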

[2] = molecular target: Human Axl (residues H473-A894 with Q764R) (Homo sapiens (Human), UniProt P30530, Q764R); experiment: Human AXL kinase assay, 33P-phosphoryl transfer radiometric (Example A-1, KinaseProfiler); format: biochemical
Description: The reaction was initiated by the addition of the Mg/ATP mix. […] Incorporated ^33P was measured using the Wallac Microbeta scintillation counter (Perkin Elmer).

[3] = molecular target: Human KDR (residues K790-V1356) (Homo sapiens (Human), UniProt P35968); experiment: Human KDR kinase assay, 33P-phosphoryl transfer radiometric (Example B-1, KinaseProfiler); format: biochemical; conditions: protocol of Example B-1 (compounds 21-27, 41-47, 99, 104)
Description: Kinase activity and compound inhibition were investigated using the ^33P-Phosphoryl transfer radiometric kinase assay, performed using the KinaseProfiler™ service of Eurofins Pharma Discovery Services UK Limited. Dose-response experiments were performed using nine compound concentrations in a 96-well microtiter plate. For each assay, all compounds were prepared to a 50× final assay concentration (50 μM) in 100% DMSO, then diluted in a half-log series, with the final top concentration at 1 μM. This working stock of the compound was added to the assay well as the first component in the reaction, followed by the remaining components as detailed in the following assay protocols below. The positive control wells (100% kinase activity) contain all components of the reaction including 2% DMSO (control for solvent effects), except the compound of interest. Blank wells contain all components of the reaction, with the reference inhibitor, staurosporine. This reference compound was used to abolish kinase activity and generated the 0% kinase activity base-line. IC50 values were calculated by nonlinear regression analysis using the sigmoidal dose-response (variable slope) curve fit on XLFit version 5.3 (ID Business Solutions).
Example B-1: Human KDR (residues K790-V1356, 55 nM) was incubated with 8 mM MOPS pH 7.0, 0.2 mM EDTA, 0.33 mg/mL myelin basic protein, 10 mM magnesium acetate, and 10 μM [γ-^33P-ATP]. The reaction was initiated by the addition of the Mg/ATP mix. After incubation for 40 minutes at room temperature, the reaction was stopped by the addition of phosphoric acid to a concentration of 0.5%. A reaction aliquot of 10 μL was then spotted onto a P30 filtermat and washed four times for 4 minutes in 0.425% phosphoric acid and once in methanol prior to drying and scintillation counting. Incorporated ^33P was measured using the Wallac Microbeta scintillation counter (Perkin Elmer).

[4] = molecular target: Human AXL (residues 464-885) (Homo sapiens (Human), UniProt P30530); experiment: Human AXL kinase assay, HTRF KinEase (Example A-2); format: biochemical
Description: Kinase activity and compound inhibition were also investigated using the HTRF® KinEase assay (Cisbio Cat #62TKOPEB) per manufacturer's instructions. In short, compounds were delivered in 300 nL volumes at 10 different concentrations in DMSO (3% final) to empty 384-well assay plates (Corning cat #3824). A mixture of enzyme, […] biotynlated peptide substrate, and buffer in 10 μL volume was added. The assay was started upon the addition of ATP (at Km). The 10 μL reaction was incubated at room temperature. The reaction was stopped upon the addition of detection buffer containing streptavidin-XL665 ([…]) and TK antibody-Eu3+(5 L).
Kinase activity normalized to DMSO (100% activity) and reference compound at […] and (0% activity) was calculated using the fluorescence ratio […]. IC50 values were calculated by nonlinear regression analysis using a 4-parameter logistic curve fit in ActivityBase XE (IDBS).
The mixture was added to the pre-plated compounds. […] The reaction was incubated at room temperature for 50 min and stopped upon the addition of SA-XL665 and TK-antibody both diluted in EDTA-containing kinase detection buffer (Cisbio). The kinase activity was calculated as stated above and the IC50 values were reported.

AXL (phospho-AXL, Gas6-stimulated A-172 glioblastoma cells), sequence (P30530 26-894): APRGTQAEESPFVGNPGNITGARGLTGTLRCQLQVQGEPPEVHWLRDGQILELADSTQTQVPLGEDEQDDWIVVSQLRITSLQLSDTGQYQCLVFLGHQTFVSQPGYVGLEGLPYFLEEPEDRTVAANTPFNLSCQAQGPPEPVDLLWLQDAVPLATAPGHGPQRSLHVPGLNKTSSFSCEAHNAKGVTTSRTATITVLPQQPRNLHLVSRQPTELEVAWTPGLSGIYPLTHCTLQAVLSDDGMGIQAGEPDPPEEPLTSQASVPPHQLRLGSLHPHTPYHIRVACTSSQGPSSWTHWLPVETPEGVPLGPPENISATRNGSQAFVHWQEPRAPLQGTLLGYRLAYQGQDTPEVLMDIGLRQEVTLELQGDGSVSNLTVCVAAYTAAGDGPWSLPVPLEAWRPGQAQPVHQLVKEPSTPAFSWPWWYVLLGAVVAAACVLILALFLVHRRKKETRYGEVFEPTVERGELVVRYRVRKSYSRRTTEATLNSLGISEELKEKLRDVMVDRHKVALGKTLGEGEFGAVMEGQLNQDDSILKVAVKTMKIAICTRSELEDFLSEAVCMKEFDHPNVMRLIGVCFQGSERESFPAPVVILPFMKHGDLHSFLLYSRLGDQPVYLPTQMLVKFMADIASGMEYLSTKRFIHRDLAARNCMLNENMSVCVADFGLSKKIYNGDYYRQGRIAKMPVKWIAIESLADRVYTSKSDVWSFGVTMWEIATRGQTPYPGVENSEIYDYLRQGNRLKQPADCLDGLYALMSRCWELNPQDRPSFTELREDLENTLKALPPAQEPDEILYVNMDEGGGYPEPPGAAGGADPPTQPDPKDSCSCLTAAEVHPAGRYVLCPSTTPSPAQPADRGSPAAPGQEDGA
Human AXL (residues 464-885), sequence (P30530 473-894): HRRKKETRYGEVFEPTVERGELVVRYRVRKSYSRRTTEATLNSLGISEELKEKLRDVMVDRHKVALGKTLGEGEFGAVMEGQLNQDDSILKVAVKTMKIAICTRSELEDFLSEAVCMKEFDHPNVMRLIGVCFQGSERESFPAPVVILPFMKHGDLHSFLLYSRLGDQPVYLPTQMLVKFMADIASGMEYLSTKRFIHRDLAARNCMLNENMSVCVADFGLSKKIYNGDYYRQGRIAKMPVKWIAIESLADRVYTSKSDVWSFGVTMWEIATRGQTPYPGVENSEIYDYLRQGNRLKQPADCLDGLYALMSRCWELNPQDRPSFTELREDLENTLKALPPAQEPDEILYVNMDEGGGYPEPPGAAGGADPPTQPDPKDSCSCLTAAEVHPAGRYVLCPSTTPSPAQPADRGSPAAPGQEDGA
Human Axl (residues H473-A894 with Q764R), sequence (P30530 473-894 Q764R): as the sequence (P30530 473-894) above, with Q292R counted along it
Human KDR (residues K790-V1356), sequence (P35968 790-1356): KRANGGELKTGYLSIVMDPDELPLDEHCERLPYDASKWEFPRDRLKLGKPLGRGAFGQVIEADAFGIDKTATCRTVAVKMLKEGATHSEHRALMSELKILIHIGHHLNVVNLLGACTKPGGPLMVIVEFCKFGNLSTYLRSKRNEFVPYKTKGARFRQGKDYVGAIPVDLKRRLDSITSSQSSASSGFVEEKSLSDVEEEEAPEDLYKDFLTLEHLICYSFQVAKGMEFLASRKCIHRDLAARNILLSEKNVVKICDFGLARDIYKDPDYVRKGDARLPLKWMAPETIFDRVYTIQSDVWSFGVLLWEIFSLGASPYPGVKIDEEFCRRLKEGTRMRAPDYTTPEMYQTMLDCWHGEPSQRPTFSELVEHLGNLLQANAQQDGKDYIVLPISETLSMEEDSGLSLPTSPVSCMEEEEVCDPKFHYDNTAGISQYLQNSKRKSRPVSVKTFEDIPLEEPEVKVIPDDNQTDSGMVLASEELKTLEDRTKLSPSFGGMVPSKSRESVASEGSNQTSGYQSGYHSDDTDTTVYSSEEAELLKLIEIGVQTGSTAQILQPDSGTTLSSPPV

| Compound | IC50 [1] | IC50 [2] | IC50 [3] | IC50 ([4]; protocol of Example A-2 (other compounds)) | IC50 ([4]; protocol of Example A-2) |
| --- | --- | --- | --- | --- | --- |
| COc1cc2nccc(Oc3ccc(NC(=O)c4c[nH]c(=S)n(-c5ccc(F)cc5)c4=O)cc3F)c2nc1OC [Compound 104, N-[4-[(6,7-Dimethoxy-1,5-naphthyridin-4-yl)oxy]-3-fluorophenyl]-3-(4-fluorophenyl)-4-oxo-2-sulfanylidene-1H-pyrimidine-5-carboxamide] | < 100 nM | > 300 nM | > 300 nM |  |  |
| COc1cc2ncnc(Oc3ccc(NC(=O)c4c5n(cc(-c6ccc(F)cc6)c4=O)CCC5)cc3F)c2cc1OC [Compound 406, N-[4-(6,7-dimethoxyquinazolin-4-yl)oxy-3-fluorophenyl]-6-(4-fluorophenyl)-7-oxo-2,3-dihydro-1H-indolizine-8-carboxamide] | < 100 nM |  |  | < 100 nM |  |
| C=C(C)c1cnc2c(Oc3ccc(NC(=O)c4c(C)cc(C)n(-c5ccc(F)cc5)c4=O)cc3F)ccnc2c1 [Compound 457, 1-(4-fluorophenyl)-N-[3-fluoro-4-[(7-prop-1-en-2-yl-1,5-naphthyridin-4-yl)oxy]phenyl]-4,6-dimethyl-2-oxopyridine-3-carboxamide] | < 100 nM |  |  |  | < 100 nM |
| CNc1nccc2c(Oc3ccc(NC(=O)c4cnc(C)n(-c5ccc(F)cc5)c4=O)cc3)ccnc12 [Compound 543, 1-(4-fluorophenyl)-2-methyl-N-[4-[[8-(methylamino)-1,7-naphthyridin-4-yl)oxy]phenyl]-6-oxopyrimidine-5-carboxamide] | < 100 nM |  |  |  | < 100 nM |
